Reference: ChEMBL document CHEMBL5360601, “Discovery of Potent, Dual-Inhibitors of Diacylglycerol Kinases Alpha and Zeta Guided by Phenotypic Optimization” (ACS Med Chem Lett, 2023)
Active and inactive are the calls of the source. The rule behind the calls is not given here.

Assays:
Mus musculus [1] = species on record: Mus musculus; experiment: Immunostimulatory activity in OT-1 mouse model assessed as increase in activated effector T-cells measured after 24 hrs in presence of SIINFEKL antigen by flow cytometry analysis; assay type: functional, organism-based; conditions: dose 1-10 mg/kg
[2] = Metabolic stability in human liver microsomes assessed as parent compound remaining; assay type: ADME, Microsome
[3] = target: Diacylglycerol kinase iota (Homo sapiens, UniProt O75912); experiment: Inhibition of human DGK iota using 1, 2-Dilauroyl-sn-glycerol as substrate by ADP-Glo kinase assay
[4] = Cmax in C57BL6 mouse at 5 mg/kg, po administered as bolus dose measured upto 72 hrs by LC/MS/MS analysis; assay type: ADME, organism-based; design: dose 5 mg/kg, time < 72 hrs, route po; conditions: in vivo
[5] = AUClast in C57BL6 mouse at 1 mg/kg, iv administered as bolus dose measured upto 72 hrs by LC/MS/MS analysis; assay type: ADME, organism-based; design: dose 1 mg/kg, time < 72 hrs, route iv; conditions: in vivo
[6] = Tmax in C57BL6 mouse at 5 mg/kg, po administered as bolus dose measured upto 72 hrs by LC/MS/MS analysis; assay type: ADME, organism-based; conditions: in vivo
[7] = Volume of distribution at steady state in C57BL6 mouse at 1 mg/kg, iv administered as bolus dose measured upto 72 hrs by LC/MS/MS analysis; assay type: ADME, organism-based; conditions: in vivo, read-out: Vdss
[8] = Oral bioavailability in C57BL6 mouse at 5 mg/kg administered as bolus dose measured upto 72 hrs by LC/MS/MS analysis; assay type: ADME, organism-based; conditions: in vivo
[9] = Half life in C57BL6 mouse at 1 mg/kg, iv administered as bolus dose measured upto 72 hrs by LC/MS/MS analysis; assay type: ADME, organism-based; conditions: in vivo
[10] = target: T1, Diacylglycerol kinase kappa (Homo sapiens, UniProt Q5KSL6); experiment: Inhibition of human DGK kappa using 1, 2-Dilauroyl-sn-glycerol as substrate by ADP-Glo kinase assay
T1 sequence (Q5KSL6 whole entry): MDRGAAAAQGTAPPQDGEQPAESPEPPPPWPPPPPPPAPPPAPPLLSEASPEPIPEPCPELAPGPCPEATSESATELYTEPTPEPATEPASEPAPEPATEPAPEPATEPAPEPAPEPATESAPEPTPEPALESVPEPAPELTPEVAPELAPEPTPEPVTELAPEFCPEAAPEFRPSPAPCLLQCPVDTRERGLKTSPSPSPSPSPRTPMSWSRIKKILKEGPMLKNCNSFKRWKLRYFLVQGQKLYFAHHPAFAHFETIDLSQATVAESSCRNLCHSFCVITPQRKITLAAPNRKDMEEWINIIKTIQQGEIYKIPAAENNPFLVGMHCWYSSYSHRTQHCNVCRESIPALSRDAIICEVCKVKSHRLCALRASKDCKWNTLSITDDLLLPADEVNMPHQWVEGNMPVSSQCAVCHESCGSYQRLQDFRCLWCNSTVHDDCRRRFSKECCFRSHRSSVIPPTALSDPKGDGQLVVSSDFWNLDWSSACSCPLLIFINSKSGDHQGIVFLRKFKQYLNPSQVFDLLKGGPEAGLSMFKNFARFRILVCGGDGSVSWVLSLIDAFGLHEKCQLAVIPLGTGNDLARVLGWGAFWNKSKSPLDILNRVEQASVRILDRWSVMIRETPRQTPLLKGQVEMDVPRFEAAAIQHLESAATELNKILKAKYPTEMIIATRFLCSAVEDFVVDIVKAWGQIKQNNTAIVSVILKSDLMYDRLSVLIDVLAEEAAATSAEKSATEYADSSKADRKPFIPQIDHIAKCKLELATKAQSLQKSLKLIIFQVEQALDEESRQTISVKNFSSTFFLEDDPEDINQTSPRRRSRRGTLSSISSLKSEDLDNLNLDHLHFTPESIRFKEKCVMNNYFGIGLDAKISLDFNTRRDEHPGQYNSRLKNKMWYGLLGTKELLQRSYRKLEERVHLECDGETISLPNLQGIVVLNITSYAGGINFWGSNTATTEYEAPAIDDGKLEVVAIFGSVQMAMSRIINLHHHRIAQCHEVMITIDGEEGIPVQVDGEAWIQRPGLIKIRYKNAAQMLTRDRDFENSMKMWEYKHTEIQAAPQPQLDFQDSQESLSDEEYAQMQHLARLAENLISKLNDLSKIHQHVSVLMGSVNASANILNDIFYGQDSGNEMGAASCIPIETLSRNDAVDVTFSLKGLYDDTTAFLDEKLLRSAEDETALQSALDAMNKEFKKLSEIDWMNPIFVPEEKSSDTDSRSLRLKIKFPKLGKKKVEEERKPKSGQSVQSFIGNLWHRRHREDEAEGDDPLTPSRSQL

Mus musculus [11] = experiment: Immunostimulatory activity in OT-1 mouse model assessed as increase in activated effector T-cells at 10 mg/kg measured after 24 hrs by flow cytometry analysis; assay type: functional, organism-based
[12] = Inhibition of DGK in human whole blood cell assessed as increase in pERK level incubated for 1 hr followed by anti-human CD3 stimulation and measure after 15 mins by AlphaLISA assay; assay type: tissue-based
[13] = target: Diacylglycerol kinase beta (Homo sapiens, UniProt Q9Y6T7); experiment: Inhibition of human DGK beta using 1, 2-Dilauroyl-sn-glycerol as substrate by ADP-Glo assay
[14] = target: Diacylglycerol kinase gamma (Homo sapiens, UniProt P49619); experiment: Inhibition of human DGK gamma using 1, 2-Dilauroyl-sn-glycerol as substrate by ADP-Glo assay
[15] = Clearance in C57BL6 mouse at 1 mg/kg, iv administered as bolus dose measured upto 72 hrs by LC/MS/MS analysis; assay type: ADME, organism-based; conditions: in vivo
[16] = Induction of proliferation of human CD8-positive T cell measured after 24 hrs by Cell titer glo assay
[17] = target: Diacylglycerol kinase alpha (Homo sapiens, UniProt P23743); experiment: Inhibition of human DGK alpha using 1, 2-Dilauroyl-sn-glycerol as substrate by ADP-Glo assay
[18] = Inhibition of DGK in human whole blood cell assessed as increase in IFNgamma level incubated for 1 hr followed by anti-human CD3/ antiCD28 mAB stimulation and measure after 24 hrs by AlphaLISA assay; assay type: tissue-based
[19] = AUClast in C57BL6 mouse at 5 mg/kg, po administered as bolus dose measured upto 72 hrs by LC/MS/MS analysis; assay type: ADME, organism-based; design: dose 5 mg/kg, time < 72 hrs, route po; conditions: in vivo
[20] = Inhibition of DGK in mouse T cell assessed as increase in IFNgamma level incubated for 1 hr by AlphaLISA assay; assay type: cell-based
Raji [21] = experiment: IL2 production in PD-L1 positive human Raji cells measured after 24 hrs by Cell titer glo assay
[22] = target: Diacylglycerol kinase zeta (Homo sapiens, UniProt Q13574); experiment: Inhibition of human DGK zeta using 1, 2-Dilauroyl-sn-glycerol as substrate by ADP-Glo kinase assay
Raji [23] = experiment: IL2 production in PD-L1 negative human Raji cells measured after 24 hrs by Cell titer glo assay
[24] = Metabolic stability in mouse liver microsomes assessed as parent compound remaining; assay type: ADME, Microsome

Diacylglycerol kinase alpha, sequence (P23743 whole entry): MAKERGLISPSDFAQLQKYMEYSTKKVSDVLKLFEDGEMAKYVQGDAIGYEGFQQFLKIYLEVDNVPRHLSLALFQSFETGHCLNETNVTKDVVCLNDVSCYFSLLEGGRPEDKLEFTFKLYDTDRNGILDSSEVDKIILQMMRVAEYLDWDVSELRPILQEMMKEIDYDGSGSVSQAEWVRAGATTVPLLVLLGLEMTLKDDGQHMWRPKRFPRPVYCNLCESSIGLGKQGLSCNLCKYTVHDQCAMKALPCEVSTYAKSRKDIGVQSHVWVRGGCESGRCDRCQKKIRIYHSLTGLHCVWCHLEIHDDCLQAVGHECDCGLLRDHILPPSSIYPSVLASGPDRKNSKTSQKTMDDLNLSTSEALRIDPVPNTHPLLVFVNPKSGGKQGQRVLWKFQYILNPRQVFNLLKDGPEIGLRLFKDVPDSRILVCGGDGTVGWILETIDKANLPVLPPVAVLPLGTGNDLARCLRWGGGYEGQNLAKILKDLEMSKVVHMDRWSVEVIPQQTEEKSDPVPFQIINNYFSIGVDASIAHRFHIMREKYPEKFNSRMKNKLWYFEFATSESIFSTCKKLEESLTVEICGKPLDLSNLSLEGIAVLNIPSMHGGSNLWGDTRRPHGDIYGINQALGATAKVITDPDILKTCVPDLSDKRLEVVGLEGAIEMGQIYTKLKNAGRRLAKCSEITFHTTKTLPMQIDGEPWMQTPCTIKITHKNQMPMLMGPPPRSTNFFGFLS
Diacylglycerol kinase gamma, sequence (P49619 whole entry): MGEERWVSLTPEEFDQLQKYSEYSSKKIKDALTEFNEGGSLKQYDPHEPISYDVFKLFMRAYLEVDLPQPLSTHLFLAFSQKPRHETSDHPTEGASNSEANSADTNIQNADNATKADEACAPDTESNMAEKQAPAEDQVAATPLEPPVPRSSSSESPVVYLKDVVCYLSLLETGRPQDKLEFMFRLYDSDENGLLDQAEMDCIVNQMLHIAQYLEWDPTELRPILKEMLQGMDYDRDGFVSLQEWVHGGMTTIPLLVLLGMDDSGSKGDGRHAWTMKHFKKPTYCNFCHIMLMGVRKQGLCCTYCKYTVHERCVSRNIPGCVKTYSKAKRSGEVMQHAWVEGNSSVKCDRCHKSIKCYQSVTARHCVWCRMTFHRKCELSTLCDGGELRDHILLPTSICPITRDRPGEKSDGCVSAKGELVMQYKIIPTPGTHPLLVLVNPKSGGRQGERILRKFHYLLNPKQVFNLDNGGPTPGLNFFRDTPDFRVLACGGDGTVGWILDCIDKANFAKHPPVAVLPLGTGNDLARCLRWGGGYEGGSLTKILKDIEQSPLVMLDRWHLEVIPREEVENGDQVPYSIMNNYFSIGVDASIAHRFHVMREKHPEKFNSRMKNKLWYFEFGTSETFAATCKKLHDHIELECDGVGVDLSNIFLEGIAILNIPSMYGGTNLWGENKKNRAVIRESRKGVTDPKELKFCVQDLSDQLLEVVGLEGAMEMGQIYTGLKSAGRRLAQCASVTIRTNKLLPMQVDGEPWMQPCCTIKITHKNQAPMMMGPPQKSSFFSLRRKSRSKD
Diacylglycerol kinase iota, sequence (O75912 whole entry): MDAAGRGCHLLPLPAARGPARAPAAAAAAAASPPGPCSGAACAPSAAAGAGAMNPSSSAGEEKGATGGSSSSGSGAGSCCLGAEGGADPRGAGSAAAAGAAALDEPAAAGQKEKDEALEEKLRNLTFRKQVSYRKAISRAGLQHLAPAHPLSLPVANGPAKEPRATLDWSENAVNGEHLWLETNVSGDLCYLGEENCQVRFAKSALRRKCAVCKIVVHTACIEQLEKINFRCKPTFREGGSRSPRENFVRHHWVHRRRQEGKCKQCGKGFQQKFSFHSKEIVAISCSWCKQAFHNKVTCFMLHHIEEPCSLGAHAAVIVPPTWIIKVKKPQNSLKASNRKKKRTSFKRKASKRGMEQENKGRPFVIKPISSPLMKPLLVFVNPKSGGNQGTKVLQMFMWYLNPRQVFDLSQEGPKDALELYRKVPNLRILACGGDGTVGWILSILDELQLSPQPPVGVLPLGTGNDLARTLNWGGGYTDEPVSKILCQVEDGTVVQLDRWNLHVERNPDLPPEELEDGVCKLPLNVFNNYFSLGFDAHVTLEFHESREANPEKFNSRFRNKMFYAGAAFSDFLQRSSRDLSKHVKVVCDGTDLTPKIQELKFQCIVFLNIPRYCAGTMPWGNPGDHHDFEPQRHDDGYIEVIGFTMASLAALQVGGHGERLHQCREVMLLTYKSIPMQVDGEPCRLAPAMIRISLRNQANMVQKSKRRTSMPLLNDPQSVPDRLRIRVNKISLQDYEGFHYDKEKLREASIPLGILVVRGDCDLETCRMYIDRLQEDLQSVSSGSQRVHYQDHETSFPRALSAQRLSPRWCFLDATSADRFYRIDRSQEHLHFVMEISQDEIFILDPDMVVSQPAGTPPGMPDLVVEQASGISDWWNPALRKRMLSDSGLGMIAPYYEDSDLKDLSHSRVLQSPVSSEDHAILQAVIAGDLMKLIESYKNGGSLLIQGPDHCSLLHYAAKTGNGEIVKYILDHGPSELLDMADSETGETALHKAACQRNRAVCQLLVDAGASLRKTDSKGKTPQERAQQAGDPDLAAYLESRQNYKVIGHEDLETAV
Diacylglycerol kinase zeta, sequence (Q13574 whole entry): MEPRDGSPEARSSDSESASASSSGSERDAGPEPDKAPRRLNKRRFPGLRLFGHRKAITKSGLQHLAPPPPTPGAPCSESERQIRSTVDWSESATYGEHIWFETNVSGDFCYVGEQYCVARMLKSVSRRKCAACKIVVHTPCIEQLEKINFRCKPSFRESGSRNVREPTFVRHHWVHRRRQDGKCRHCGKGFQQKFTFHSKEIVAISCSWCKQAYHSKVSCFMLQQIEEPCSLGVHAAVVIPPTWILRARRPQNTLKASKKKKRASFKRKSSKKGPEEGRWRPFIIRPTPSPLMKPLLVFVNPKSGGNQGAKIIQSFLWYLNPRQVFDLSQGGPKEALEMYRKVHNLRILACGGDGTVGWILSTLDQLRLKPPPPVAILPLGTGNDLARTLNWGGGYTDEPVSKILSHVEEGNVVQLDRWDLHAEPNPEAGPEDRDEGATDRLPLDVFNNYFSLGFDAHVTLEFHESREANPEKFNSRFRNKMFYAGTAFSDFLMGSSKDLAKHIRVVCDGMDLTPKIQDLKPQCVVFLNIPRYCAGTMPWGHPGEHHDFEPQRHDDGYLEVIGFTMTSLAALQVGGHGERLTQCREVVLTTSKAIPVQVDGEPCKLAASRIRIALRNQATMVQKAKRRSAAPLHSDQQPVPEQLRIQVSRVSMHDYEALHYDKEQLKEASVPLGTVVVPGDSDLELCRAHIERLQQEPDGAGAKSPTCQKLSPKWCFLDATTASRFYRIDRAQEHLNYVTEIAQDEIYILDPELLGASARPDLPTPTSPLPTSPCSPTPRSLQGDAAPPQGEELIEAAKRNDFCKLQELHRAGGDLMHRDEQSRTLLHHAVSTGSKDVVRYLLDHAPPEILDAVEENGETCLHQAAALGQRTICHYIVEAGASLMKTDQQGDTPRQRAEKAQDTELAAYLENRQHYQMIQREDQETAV

Stability [2]: 90%
IC50 [3]: 0.003 µM
Cmax [4]: 1.08 µM
AUC(0-t) at 72 h [5]: 14.8 µM·h
Tmax [6]: 3 h
Vd [7]: 3.9 L/kg
bioavailability [8]: 65%
half-life [9]: 22.5 h
IC50 [10]: 4.6 µM
EC50 [12]: 0.52 µM
IC50 [13]: 1 µM
IC50 [14]: 0.68 µM
clearance [15]: 0.114 L/h/kg
IC50 [17]: 0.005 µM
EC50 [18]: 0.28 µM
AUC(0-t) at 72 h [19]: 48 µM·h
EC50 [20]: 0.34 µM
EC50 (Raji [21]): 0.037 µM
IC50 [22]: 0.002 µM
EC50 (Raji [23]): 0.037 µM
Stability [24]: 99%
Structure (SMILES): Cn1c(=O)c([N+](=O)[O-])c(N2CCN(C(c3ccc(F)cc3)c3ccc(F)cc3)CC2)c2nc(C#N)ccc21
Activity (Mus musculus [1]): Dose-Dependent Effect
Activity (Mus musculus [11]): inactive
EC50 [16]: 0.065 µM
